According to article PMC10112521, “High-throughput AR dimerization assay identifies androgen disrupting chemicals and metabolites” (Frontiers in Toxicology, 2023):
Counter-ions that a name gives are not always drawn. Like-named read-outs stand apart in the source and are kept apart here.

Key:
[1] = system: AR; parameters: method as in Kleinstreuer et al., 2017; details: 2017, cited from earlier work; for Agonist reference: AR agonist reference class ref Kleinstreuer et al.; for Antagonist reference: AR antagonist reference class ref Kleinstreuer et al.
[2] = system: full-length human AR and the receptor interacting domain (RID) of SRC1; parameters: method as in U.S. EPA, 2002b; details: cited from earlier work
[3] = system: AR2 cells (HepG2-AR2); assay: Alamar Blue (resazurin) post hoc cell viability / cytotoxicity assay in AR2 cells; details: spid Viability, sheet antagonist_fits; for hill_tp (Hill model top): 0 where win_model is Constant
Description: For antagonist mode and cytotoxicity data, well-level normalized response (resp) was calculated as: resp=100 * RLU−bval/pval−bval where pval is the median RLU value of the MEC positive control wells (minimum four wells).

[4] = biological target: T1, human AR (Homo sapiens, UniProt P10275); assay: AR2 assay, agonist mode: ligand-dependent AR homodimerization (NanoBiT luciferase complementation) in stable HepG2-AR2 cells; format: cell-based;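 for hill tp: Log2 fold change of luminescence over DMSO vehicle wells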;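 for max med: Log2 fold change of luminescence over DMSO vehicle wells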
T1 sequence (P10275 1-920) 1: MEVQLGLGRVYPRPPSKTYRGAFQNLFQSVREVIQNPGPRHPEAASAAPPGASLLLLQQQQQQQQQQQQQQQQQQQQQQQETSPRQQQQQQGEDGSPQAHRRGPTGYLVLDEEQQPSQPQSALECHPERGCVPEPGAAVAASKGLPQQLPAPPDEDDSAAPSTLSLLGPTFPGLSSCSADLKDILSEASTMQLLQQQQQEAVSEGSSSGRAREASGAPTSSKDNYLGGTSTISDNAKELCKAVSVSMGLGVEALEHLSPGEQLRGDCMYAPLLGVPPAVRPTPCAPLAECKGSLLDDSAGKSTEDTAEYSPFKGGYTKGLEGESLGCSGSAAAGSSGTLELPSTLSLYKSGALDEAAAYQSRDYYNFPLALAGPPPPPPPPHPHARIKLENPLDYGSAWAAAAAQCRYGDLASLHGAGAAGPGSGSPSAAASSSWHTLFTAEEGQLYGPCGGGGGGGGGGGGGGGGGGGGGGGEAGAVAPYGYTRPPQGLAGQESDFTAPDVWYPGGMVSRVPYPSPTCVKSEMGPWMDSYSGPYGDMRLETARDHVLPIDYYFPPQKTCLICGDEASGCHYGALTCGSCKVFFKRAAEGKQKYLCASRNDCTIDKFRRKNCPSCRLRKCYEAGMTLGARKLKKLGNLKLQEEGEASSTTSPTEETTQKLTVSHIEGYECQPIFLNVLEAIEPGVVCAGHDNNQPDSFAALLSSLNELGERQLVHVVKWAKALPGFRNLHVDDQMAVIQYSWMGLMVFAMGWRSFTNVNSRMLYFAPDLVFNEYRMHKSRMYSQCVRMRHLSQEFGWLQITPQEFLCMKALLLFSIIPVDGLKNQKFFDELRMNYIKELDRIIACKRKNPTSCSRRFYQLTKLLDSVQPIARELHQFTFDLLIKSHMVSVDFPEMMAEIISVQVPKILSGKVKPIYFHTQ
T1 sequence (P10275 1-920) 2: T1 sequence (P10275 1-920) 1

[5] = biological target: T1, human AR; assay: AR2 assay, antagonist mode: disruption of R1881 (10 nM)-induced AR homodimerization in HepG2-AR2 cells; format: cell-based
[6] = sheet agonist_fits, maximum median response
[7] = spid AR_antagonist, sheet antagonist_fits
[8] = spid AR_antagonist, sheet antagonist_fits, 0 where win_model is Constant
[9] = sheet agonist_fits, Hill model top (efficacy), 0 given where win_model is Constant
[10] = sheet agonist_fits, winning concentration-response model (Constant, Hill, Gain-Loss)

In the case of `C[C@]12CCC(=O)C=C1CC[C@@H]1[C@@H]2CC[C@]2(C)C(=O)CC[C@@H]12` [4-Androstene-3,17-dione], the Agonist reference [1] is given as “Moderate”, the Antagonist reference [1] is given as “Inactive” and the Agonist reference ([1]; Supplementary Table S1) is given as “Moderate”. The “OT 8 hr” value ([2]; activity call, 8 h, single protocol detects agonists and antagonists, invitroDBv3.4 ref U.S. EPA, 2002b) was 1, the “OT 16 hr” value ([2]; activity call, 16 h, single protocol detects agonists and antagonists, invitroDBv3.4 ref U.S. EPA, 2002b) was 1 and the “max_med (maximum median response)” value [3] was 19.1138. The “hill_tp (Hill model top)” value [3] was 19.333.

With `C[C@]12C=CC3=C4CCC(=O)C=C4CC[C@H]3[C@@H]1CC[C@@H]2O` [17beta-Trenbolone] the AR2 agonist [4] was 1, the “activity call in agonist mode” value [4] was “tested active” and the hill_gw [4] was 0.7579. For the same compound, the hill_tp [4] was 6.165, the max_med [4] was 6.198 and the win_model [4] was “Hill”. The Agonist reference [1] was “Strong”, the Agonist reference ([1]; Supplementary Table S1) was “Strong” and the “OT 8 hr” value [2] was 1. The “OT 16 hr” value [2] was 1, the “max_med (maximum median response)” value [3] was 21.7453 and the “hill_tp (Hill model top)” value [3] was 17.3642. For the same compound, the “hill_gw (Hill model slope)” value [5] was 6.214, the “hill_tp (Hill model top)” value [5] was 20.2687 and the “max_med (maximum median response)” value [5] was 20.7317. The “win_model (winning concentration-response model)” value [5] was “Gain-Loss”.

For `CCCCOC(=O)c1ccccc1C(=O)OCc1ccccc1` [Butylbenzylphthalate], the Agonist reference ([1]; Supplementary Table S1) is given as “Inactive”, the “max_med (maximum median response)” value [3] is given as 15.4413 and the “hill_tp (Hill model top)” value [3] is given as 12.3573.

In the case of `CCN(CC)CCOc1ccc(C(=C(Cl)c2ccccc2)c2ccccc2)cc1` [Clomiphene citrate], the max_med [4, 6] is reported as -0.008157, the “max_med (maximum median response)” value [3] is reported as 99.676 and the “hill_tp (Hill model top)” value [3] is reported as 104.376. For the same compound, the “max_med (maximum median response)” value [5, 7] was 103.883, the “win_model (winning concentration-response model)” value [5, 7] was “Hill” and the “hill_gw (Hill model slope)” value [5, 8] was 2.036. For the same compound, the “hill_tp (Hill model top)” value [5, 8] was 106.625.

For `CCN(CC)CCOc1ccc(/C(=C(/Cl)c2ccccc2)c2ccccc2)cc1` [Enclomiphene hydrochloride], the hill_tp [4, 9] was 0, the max_med [4, 6] was 0.05981 and the win_model [4, 10] was “Constant”. The “max_med (maximum median response)” value [3] was 99.6641, the “hill_tp (Hill model top)” value [3] was 101.238 and the “max_med (maximum median response)” value [5, 7] was 104.097. For the same compound, the “win_model (winning concentration-response model)” value [5, 7] was “Hill”, the “hill_gw (Hill model slope)” value [5, 8] was 2.002 and the “hill_tp (Hill model top)” value [5, 8] was 106.442.

In the case of `COP(=S)(OC)Oc1ccc([N+](=O)[O-])c(C)c1` [Fenitrothion], the Antagonist reference [1] is given as “Strong”, the Antagonist reference ([1]; Supplementary Table S1) is given as “Strong” and the “max_med (maximum median response)” value [3] is given as 18.684. For the same compound, the “hill_tp (Hill model top)” value [3] was 19.2014.

For `CC(C)(C)NC(=O)[C@H]1CC[C@H]2[C@@H]3CC[C@H]4NC(=O)C=C[C@]4(C)[C@H]3CC[C@]12C` [Finasteride], the Agonist reference [1] is given as “Inactive”, the “max_med (maximum median response)” value [3] is given as 14.3947 and the “hill_tp (Hill model top)” value [3] is given as 0.

In the case of `CC(C)C(=O)Nc1ccc([N+](=O)[O-])c(C(F)(F)F)c1` [Flutamide], the Agonist reference [1] is given as “Inactive”, the Antagonist reference [1] is given as “Moderate” and the Antagonist reference ([1]; Supplementary Table S1) is given as “Moderate”. The “max_med (maximum median response)” value [3] was 35.756 and the “hill_tp (Hill model top)” value [3] was 43.7281.

For `C#C[C@]1(O)CC[C@H]2[C@@H]3CCC4=CC(=O)CC[C@@H]4[C@H]3CC[C@@]21CC` [Levonorgestrel], the Agonist reference [1] is listed as “Strong”, the Agonist reference ([1]; Supplementary Table S1) is listed as “Strong” and the “max_med (maximum median response)” value [3] is listed as 19.7477. The “hill_tp (Hill model top)” value [3] was 15.1748.

In the case of `CON(C)C(=O)Nc1ccc(Cl)c(Cl)c1` [Linuron], the Antagonist reference [1] is given as “Moderate”, the Antagonist reference ([1]; Supplementary Table S1) is given as “Moderate” and the “max_med (maximum median response)” value [3] is given as 8.62. The “hill_tp (Hill model top)” value [3] was 20.739.

In the case of `CCOC(=O)CC(SP(=S)(OC)OC)C(=O)OCC` (stereo not shown) [Malathion], the hill_tp [4, 9] is reported as 0, the max_med [4, 6] is reported as 0.05987 and the win_model [4, 10] is reported as “Constant”. For the same compound, the “max_med (maximum median response)” value [3] was 9.605, the “hill_tp (Hill model top)” value [3] was 0 and the “max_med (maximum median response)” value [5, 7] was 33.4262. The “win_model (winning concentration-response model)” value [5, 7] was “Hill”, the “hill_gw (Hill model slope)” value [5, 8] was 0.997 and the “hill_tp (Hill model top)” value [5, 8] was 41.649.

In the case of `CNC(=O)ON=C(C)SC` [Methomyl], the Antagonist reference [1] is listed as “Inactive”, the “max_med (maximum median response)” value [3] is listed as 19.3855 and the “hill_tp (Hill model top)” value [3] is listed as 17.5917.

For `COc1ccc(C(c2ccc(OC)cc2)C(Cl)(Cl)Cl)cc1` [Methoxychlor], the Antagonist reference [1] is listed as “Weak”, the Antagonist reference ([1]; Supplementary Table S1) is listed as “Weak” and the “max_med (maximum median response)” value [3] is listed as 4.672. For the same compound, the “hill_tp (Hill model top)” value [3] was 0.

For `CC1(C)NC(=O)N(c2ccc([N+](=O)[O-])c(C(F)(F)F)c2)C1=O` [Nilutamide], the Agonist reference ([1]; Supplementary Table S1) is given as “Inactive”, the Antagonist reference ([1]; Supplementary Table S1) is given as “Moderate” and the “max_med (maximum median response)” value [3] is given as 8.678. The “hill_tp (Hill model top)” value [3] was 5.9263.

In the case of `C#C[C@]1(O)CC[C@H]2[C@@H]3CCC4=CC(=O)CC[C@@H]4[C@H]3CC[C@@]21C` [Norethindrone], the Agonist reference [1] is given as “Strong”, the Agonist reference ([1]; Supplementary Table S1) is given as “Strong” and the “max_med (maximum median response)” value [3] is given as 2.971. The “hill_tp (Hill model top)” value [3] was 0.

With `CNC(=O)O/N=C(\SC)C(=O)N(C)C` [Oxamyl] the hill_tp [4, 9] was 0, the max_med [4, 6] was 0.09886 and the win_model [4, 10] was “Constant”. For the same compound, the “max_med (maximum median response)” value [3] was 14.6316, the “hill_tp (Hill model top)” value [3] was 13.892 and the “max_med (maximum median response)” value [5, 7] was 4.35. For the same compound, the “win_model (winning concentration-response model)” value [5, 7] was “Constant”, the “hill_gw (Hill model slope)” value [5, 8] was 0 and the “hill_tp (Hill model top)” value [5, 8] was 0.

For `CCCN(CCOc1c(Cl)cc(Cl)cc1Cl)C(=O)n1ccnc1` [Prochloraz], the Agonist reference [1] is given as “Inactive”, the Antagonist reference [1] is given as “Moderate” and the Antagonist reference ([1]; Supplementary Table S1) is given as “Moderate”. The “max_med (maximum median response)” value [3] was 76.2192 and the “hill_tp (Hill model top)” value [3] was 81.7308.

In the case of `CC(=O)S[C@@H]1CC2=CC(=O)CC[C@]2(C)[C@H]2CC[C@@]3(C)[C@@H](CC[C@@]34CCC(=O)O4)[C@H]12` [Spironolactone], the Antagonist reference [1] is listed as “Strong”, the Antagonist reference ([1]; Supplementary Table S1) is listed as “Strong” and the “max_med (maximum median response)” value [3] is listed as 26.4305.

In the case of `CC/C(=C(\c1ccccc1)c1ccc(OCCN(C)C)cc1)c1ccccc1` [Tamoxifen], the Agonist reference [1] is given as “Inactive”, the “max_med (maximum median response)” value [3] is given as 41.7162 and the “hill_tp (Hill model top)” value [3] is given as 97.2082.
